{"source": "patent US20200171149A1", "about": "“COMBINATION THERAPY FOR NON-SMALL CELL LUNG CANCER POSITIVE FOR EGFR MUTATION” (MEDIMMUNE LIMITED, priority 2015, published 2020)", "origin": "cited, not measured here", "key": {"tumor": {"test_system": "tumor", "details": "patients"}, "[1]": {"test_system": "EGFR-TKI sensitizing and resistance T790M mutations", "details": "preclinical models; Janne et al., J Clin Oncol 2014"}, "human T-cell activation": {"test_system": "human T-cell activation", "details": "in vitro"}, "xenograft model": {"test_system": "xenograft model", "details": "T-cell dependent mechanism"}}, "data": [{"molecule": "COc1cc2ncnc(Nc3ccc(F)c(Cl)c3)c2cc1OCCCN1CCOCC1", "note": "[gefitinib, N-(3-chloro-4-fluorophenyl)-7-methoxy-6-(3-morpholinopropoxy)quinazolin-4-amine]", "values": [{"measurement": "Tumor regression", "setting": "tumor", "result": "tumor regression in some patients"}]}, {"molecule": "C=CC(=O)Nc1cc(Nc2nccc(-c3cn(C)c4ccccc34)n2)c(OC)cc1N(C)CCN(C)C", "note": "[AZD9291, N-(2-((2-(dimethylamino)ethyl)(methyl)amino)-4-methoxy-5-((4-(1-methyl-1H-indol-3-yl)pyrimidin-2-yl)amino)phenyl)acrylamide]", "values": [{"measurement": "Effectiveness against EGFR mutations", "setting": "[1]", "result": "effective against both EGFR-TKI sensitizing and resistance T790M mutations"}]}, {"molecule": "MEDI4736: anti-PD-L1 antibody selective for PD-L1; light chain variable SEQ ID NO: 1, heavy chain variable SEQ ID NO: 2 (antibody, V domains shown) VH: EVQLVESGGGLVQPGGSLRLSCAASGFTFSRYWMSWVRQAPGKGLEWVANIKQDGSEKYYVDSVKGRFTISRDNAKNSLYLQMNSLRAEDTAVYYCAREGGWFGELAFDYWGQGTLVTVSS VL: EIVLTQSPGTLSLSPGERATLSCRASQRVSSSYLAWYQQKPGQAPRLLIYDASSRATGIPDRFSGSGSGTDFTLTISRLEPEDFAVYYCQQYGSLPWTFGQGTKVEIK", "values": [{"measurement": "Relief of PD-L1-mediated suppression of human T-cell activation", "setting": "human T-cell activation", "result": "can relieve PD-L-mediated suppression of human T-cell activation"}, {"measurement": "Tumor growth inhibition", "setting": "xenograft model", "result": "inhibits tumor growth"}]}]}
